We go through 3 molecules from patent publication US20130017197A1, “STABILIZED ANTIBODY PREPARATIONS AND USES THEREOF” (UNIVERSITE DE GENEVE, priority 2010, published 2013).

Common to all, as to format: physicochemical
The test system of series [1] is Avastin® (bevacizumab). Kind of series: Stability of pre-stressed Avastin® dialysed into PBS pH 7.0, with ATP or GMP: monomers by AFFF-MALS. As to conditions: for stabilization of Avastin® across molar ratios: ratios 1:1, 1:10, 1:100, 40° C. The procedure:
All samples were stored at a temperature of 40° C. during 28 days. […] The aggregation state of the antibodies was measured by multi-angle light scattering (MALS) after separation by asymmetrical flow field-flow fractionation (AFFF). […] Data were collected and analyzed with Astra software (Wyatt Technology Europe GmbH, Dernbach, Germany). The aggregation state was expressed as the percentage of monomers versus time.
After pre-stressing, Avastin® samples are combined with either ATP or GMP at three Avastin®: compound of formula (I) molar ratios (1:1, 1:10 and 1:100). All samples are stored at a temperature of 40° C. for 28 days and stability is measured as described in Example 1 and compared to a sample of Avastin® alone stored under the same conditions. For GMP, a dilution of GMP was made in PBS pH 7.0 and pH was re-adjusted to pH 7.0 before the combination with Avastin® to prevent the risk of higher order aggregates caused by the addition of NaOH directly to the antibody formulation.

The next series has as its system bevacizumab. Kind of series: Stability of dialysed, pre-stressed bevacizumab alone and with AMP: percentage of monomers by AFFF-MALS. As to conditions: for percentage of monomers: pH 7.0. The procedure: A 50 mM phosphate buffer pH 7.0 was used. The buffer choice was based on a pH range and buffer capacity that is tolerated physiologically and that is acceptable for the stability of antibodies. […] Samples were analyzed directly after preparation (t0) and after 7, 14 and 28 days. The aggregation state of the antibodies was measured by multi-angle light scattering (MALS) after separation by asymmetrical flow field-flow fractionation (AFFF). […] Data were collected and analyzed with Astra software (Wyatt Technology Europe GmbH, Dernbach, Germany). The aggregation state was expressed as the percentage of monomers versus time.

The test system of series [2] is Avastin® (bevacizumab). Kind of series: Effect of AMP on the unmodified commercial bevacizumab formulation (Avastin®): monomers by AFFF-MALS. As to conditions: 40° C.; for stabilization of the antibody (increase in the amount of monomers) versus Avastin® alone: p<0.05. The procedure:
All samples were stored at a temperature of 40° C. during 28 days. Samples were analyzed directly after preparation (t0) and after 7, 14 and 28 days. The aggregation state of the antibodies was measured by multi-angle light scattering (MALS) after separation by asymmetrical flow field-flow fractionation (AFFF). […] Data were collected and analyzed with Astra software (Wyatt Technology Europe GmbH, Dernbach, Germany). The aggregation state was expressed as the percentage of monomers versus time.
All samples are stored at a temperature of 40° C. for 28 days and stability is measured as described in Example 1 and compared to a sample of Avastin® alone stored under the same conditions.

[3] abbreviates: molar ratio 1:1, 1 day at 40° C. (t1).
[4] abbreviates: molar ratio 1:10, 1 day at 40° C. (t1).
The mark [5] stands for this setting: molar ratio 1:100, 1 day at 40° C. (t1).

With `Nc1nc2c(ncn2[C@@H]2O[C@H](COP(=O)(O)O)[C@@H](O)[C@H]2O)c(=O)[nH]1` [GMP, guanosine 5′-monophosphate], the “stabilizing properties in comparison of excipients” value in the series on Avastin® (bevacizumab) [1] (after 28 days of storage at 40° C., ratio not specified) is reported as “most distinct stabilizing properties”. Besides, the “effect on antibody stability versus Avastin® alone” value in the series with Avastin® (bevacizumab) [1] (setting [3]) was “destabilizing”; with Avastin® (bevacizumab) [1] (setting [4]), “destabilizing”; in the series on Avastin® (bevacizumab) [1] (setting [5]) it was “ability to stabilize the antibody”. The “stabilization of Avastin® across molar ratios” value with Avastin® (bevacizumab) [1] (all timepoints (1:100 most effective, then 1:10, then 1:1)) is on record as “concentration dependent stabilization”.
Regarding `Nc1ncnc2c1ncn2[C@@H]1O[C@H](COP(=O)(O)O)[C@@H](O)[C@H]1O` [AMP, adenosine 5′-monophosphate], in the series with bevacizumab (AMP added to a liquid formulation containing already formed antibody aggregates, general statement), the “increase in the proportion of the antibody present in the monomer form” value was 10% to 30. Also, the percentage of monomers entry in the series on bevacizumab (bevacizumab 25 mg/ml with AMP (read as molar ratio 1:153), 14 days at 40° C., n=3) was “higher than 94%”; in the series with bevacizumab (bevacizumab:AMP molar ratio 1:1.53, 14 days at 40° C.), “higher than 80%”; with bevacizumab (bevacizumab:AMP molar ratio 1:1.53, 28 days at 40° C., n=3) it was “higher than 76%”; in the series with bevacizumab (bevacizumab:AMP molar ratio 1:15.3, 14 days at 40° C.), “higher than 80%”; with bevacizumab (bevacizumab:AMP molar ratio 1:15.3, 28 days at 40° C., n=3), “higher than 76%”; in the series with bevacizumab (bevacizumab:AMP molar ratio 1:153, 28 days at 40° C., n=3), “around 90%”. Besides, the “stabilization compared to the other molar ratios” value in the series with Avastin® (bevacizumab) [2] (Avastin®:AMP 1:10 versus 1:1 and 1:100) is “better stabilization”. Further, the “stabilization of the antibody (increase in the amount of monomers) versus Avastin® alone” value is given as “significant stabilization” in the series on Avastin® (bevacizumab) [2] (Avastin®:AMP molar ratio 1:10, t1, t14 and t28); “significant stabilization” in the series on Avastin® (bevacizumab) [2] (Avastin®:AMP molar ratio 1:100, only t14 and t28).
As to `Nc1ncnc2c1ncn2[C@@H]1O[C@H](COP(=O)(O)OP(=O)(O)OP(=O)(O)O)[C@@H](O)[C@H]1O` [ATP, adenosine 5′-triphosphate], the “effect on antibody stability versus Avastin® alone” value with Avastin® (bevacizumab) [1] (setting [3]) is “stabilizing effect”; in the series with Avastin® (bevacizumab) [1] (molar ratio 1:1, 28 days at 40° C. (t28)) it was “no significant difference”; with Avastin® (bevacizumab) [1] (setting [4]), “stabilizing effect”; in the series with Avastin® (bevacizumab) [1] (molar ratio 1:10, 28 days at 40° C. (t28)), “no significant difference”; in the series on Avastin® (bevacizumab) [1] (setting [5]), “stabilizing effect”; in the series with Avastin® (bevacizumab) [1] (molar ratio 1:100, 28 days at 40° C. (t28)) it was “significant stabilization”. Further, the higher order aggregates result in the series on Avastin® (bevacizumab) [1] (molar ratio 1:100, 28 days at 40° C., probably due to pH adjustment) is “small percentage of higher order aggregates”. Also, in the series on Avastin® (bevacizumab) [1] (up to 14 days), the “stabilization of Avastin® across molar ratios” value is on record as “concentration dependent stabilization”.
